Measured values published in patent US12077503B2, “Substituted cyclic amides and their use as herbicides” (FMC CORPORATION, priority 2015, dated 2024).

Key:
Assay type in all cases: in vivo
[1] = test system: barnyardgrass (Echinochloa crus-galli); assay: Test A preemergence; conditions: Echinochloa crus-galli, pre-emergence, 240 h, preemergence, 0 to 100 scale where 0 is no effect and 100 is complete control, read-out: Barnyardgrass plant response rating; for pest or weed control at 125 g/ha: 125 g ai/ha, visual injury rating, approximately 10 d; for pest or weed control at 500 g/ha: 500 g ai/ha
Outline: (§1)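 Greenhouse, ~10 d after spray; visual injury vs untreated controls, 0 = no effect, 100 = complete control. Preemergence: directed soil spray over planted seeds. Postemergence: plants 2–10 cm, 1–2 leaf stage. Loam/sand blend. Compound in non-phytotoxic solvent with surfactant.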

[2] = test system: ragweed (common ragweed, Ambrosia elatior); assay: Test A preemergence; conditions: Ambrosia artemisiifolia, pre-emergence, 240 h, preemergence, 0 to 100 scale where 0 is no effect and 100 is complete control, read-out: Ragweed plant response rating; for pest or weed control at 125 g/ha: 125 g ai/ha, visual injury rating, approximately 10 d; for pest or weed control at 500 g/ha: 500 g ai/ha
Outline: as §1

Kochia (Kochia scoparia) [3] = assay: Test A preemergence; conditions: Bassia scoparia, pre-emergence, 240 h, preemergence, 0 to 100 scale where 0 is no effect and 100 is complete control, read-out: Kochia plant response rating; for pest or weed control at 125 g/ha: 125 g ai/ha, visual injury rating, approximately 10 d; for pest or weed control at 500 g/ha: 500 g ai/ha
Outline: as §1

[4] = test system: giant foxtail (Setaria faberii); assay: Test A preemergence; conditions: Setaria faberi, pre-emergence, 240 h, preemergence, 0 to 100 scale where 0 is no effect and 100 is complete control, read-out: Foxtail, Giant plant response rating; for pest or weed control at 125 g/ha: 125 g ai/ha, visual injury rating, approximately 10 d; for pest or weed control at 500 g/ha: 500 g ai/ha
Outline: as §1

[5] = test system: ryegrass, Italian (Italian ryegrass, Lolium multiflorum); assay: Test A preemergence; conditions: Lolium multiflorum, pre-emergence, 240 h, preemergence, 0 to 100 scale where 0 is no effect and 100 is complete control, read-out: Ryegrass, Italian plant response rating; for pest or weed control at 125 g/ha: 125 g ai/ha, visual injury rating, approximately 10 d; for pest or weed control at 500 g/ha: 500 g ai/ha
Outline: as §1

[6] = test system: pigweed (Amaranthus retroflexus); assay: Test A preemergence; conditions: Amaranthus retroflexus, pre-emergence, 240 h, preemergence, 0 to 100 scale where 0 is no effect and 100 is complete control, read-out: Pigweed plant response rating; for pest or weed control at 125 g/ha: 125 g ai/ha, visual injury rating, approximately 10 d; for pest or weed control at 500 g/ha: 500 g ai/ha
Kochia (Kochia scoparia) [7] = assay: Test A postemergence; conditions: Bassia scoparia, post-emergence, 240 h, postemergence; for pest or weed control at 125 g/ha: 125 g ai/ha, visual injury vs untreated controls after approx. 10 d, 0 = no effect, 100 = complete control, read-out: Kochia plant response rating (0 to 100 scale); for pest or weed control at 500 g/ha: 500 g ai/ha, 0 to 100 scale, 0 is no effect, 100 is complete control, read-out: Kochia plant response rating
Outline: as §1

[8] = test system: wheat (Triticum aestivum); assay: Test A postemergence; conditions: Triticum aestivum, post-emergence, 240 h, postemergence; for plant injury at 125 g/ha: 125 g ai/ha, visual injury vs untreated controls after approx. 10 d, 0 = no effect, 100 = complete control, read-out: Wheat plant response rating (0 to 100 scale); for plant injury at 500 g/ha: 500 g ai/ha, 0 to 100 scale, 0 is no effect, 100 is complete control, read-out: Wheat plant response rating
Outline: as §1

[9] = test system: giant foxtail (Setaria faberii); assay: Test A postemergence; conditions: Setaria faberi, post-emergence, 240 h, postemergence; for pest or weed control at 125 g/ha: 125 g ai/ha, visual injury vs untreated controls after approx. 10 d, 0 = no effect, 100 = complete control, read-out: Foxtail, Giant plant response rating (0 to 100 scale); for pest or weed control at 500 g/ha: 500 g ai/ha, 0 to 100 scale, 0 is no effect, 100 is complete control, read-out: Foxtail, Giant plant response rating
Outline: as §1

[10] = test system: pigweed (Amaranthus retroflexus); assay: Test A postemergence; conditions: Amaranthus retroflexus, post-emergence, 240 h, postemergence; for pest or weed control at 125 g/ha: 125 g ai/ha, visual injury vs untreated controls after approx. 10 d, 0 = no effect, 100 = complete control, read-out: Pigweed plant response rating (0 to 100 scale); for pest or weed control at 500 g/ha: 500 g ai/ha, 0 to 100 scale, 0 is no effect, 100 is complete control, read-out: Pigweed plant response rating
Outline: as §1

[11] = test system: Galium (catchweed bedstraw, Galium aparine); assay: Test A postemergence; conditions: Galium, post-emergence, 240 h, postemergence; for pest or weed control at 125 g/ha: 125 g ai/ha, visual injury vs untreated controls after approx. 10 d, 0 = no effect, 100 = complete control, read-out: Galium plant response rating (0 to 100 scale); for pest or weed control at 500 g/ha: 500 g ai/ha, 0 to 100 scale, 0 is no effect, 100 is complete control, read-out: Galium plant response rating
Outline: as §1

[12] = test system: sedge, umbrella (small-flower umbrella sedge, Cyperus difformis); assay: Test B flooded paddy test; conditions: Cyperus difformis, 250 g ai/ha, Flood; 0 to 100 scale where 0 is no effect and 100 is complete control; read-out: Sedge, Umbrella plant response rating
Outline: (§2)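 Flooding to 3 cm over soil accompanied treatment, which consisted of adding compound to the standing water around 2-leaf plants; depth was then maintained. Visual assessment versus controls followed at 13 to 15 d (scale 0–100, 0 meaning no effect).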

rice (Oryra sativa) = assay: Test B flooded paddy test; conditions: Oryza sativa, 250 g ai/ha, Flood; 0 to 100 scale where 0 is no effect and 100 is complete control; read-out: Rice plant response rating
Outline: as §2

[13] = test system: barnyardgrass (Echinochloa crus-galli); assay: Test B flooded paddy test; conditions: Echinochloa crus-galli, 250 g ai/ha, Flood; 0 to 100 scale where 0 is no effect and 100 is complete control; read-out: Barnyardgrass plant response rating
Outline: as §2

[14] = test system: ducksalad (Heteranthera limosa); assay: Test B flooded paddy test; conditions: Heteranthera limosa, 250 g ai/ha, Flood; 0 to 100 scale where 0 is no effect and 100 is complete control; read-out: Ducksalad plant response rating
Outline: as §2

| SMILES | pest or weed control at 125 g/ha [1] [%] | pest or weed control at 500 g/ha [1] [%] | pest or weed control at 125 g/ha [2] [%] | pest or weed control at 500 g/ha [2] [%] | pest or weed control at 125 g/ha (Kochia (Kochia scoparia) [3]) [%] | pest or weed control at 500 g/ha (Kochia (Kochia scoparia) [3]) [%] | pest or weed control at 125 g/ha [4] [%] | pest or weed control at 500 g/ha [4] [%] | pest or weed control at 125 g/ha [5] [%] | pest or weed control at 500 g/ha [5] [%] | pest or weed control at 125 g/ha [6] [%] | pest or weed control at 500 g/ha [6] [%] | pest or weed control at 125 g/ha (Kochia (Kochia scoparia) [7]) [%] | pest or weed control at 500 g/ha (Kochia (Kochia scoparia) [7]) [%] | plant injury at 125 g/ha [8] [%] | plant injury at 500 g/ha [8] [%] | pest or weed control at 125 g/ha [9] [%] | pest or weed control at 500 g/ha [9] [%] | pest or weed control at 125 g/ha [10] [%] | pest or weed control at 500 g/ha [10] [%] | also measured |
| --- | --- | --- | --- | --- | --- | --- | --- | --- | --- | --- | --- | --- | --- | --- | --- | --- | --- | --- | --- | --- | --- |
| CN1CC[C@H](c2ccc(C(F)(F)F)cc2)[C@@H](C(=O)Nc2ccc(F)c(F)c2F)C1=O [Compound 1226] | 90 | 100 | 0 | 30 | 60 | 70 | 100 | 100 | 80 | 80 | 80 | 90 | 60 | 60 | 0 | 0 | 80 | 80 | 20 | 60 | pest or weed control at 125 g/ha [11]: 80%; pest or weed control at 500 g/ha [11]: 80%; pest or weed control at 250 g/ha [12]: 0%; pest or weed control at 250 g/ha (rice (Oryra sativa)): 20%; pest or weed control at 250 g/ha [13]: 60%; pest or weed control at 250 g/ha [14]: 100% |
| N#Cc1ccc([C@H]2CNC(=O)[C@@H]2C(=O)Nc2cccc(F)c2F)cc1 [Compound 1206] | 70 | 100 | 0 | 60 | 60 | 100 | 80 | 90 | 0 | 0 | 50 | 90 | 50 | 50 | 0 | 0 | 50 | 80 | 0 | 30 | pest or weed control at 125 g/ha [11]: 30%; pest or weed control at 500 g/ha [11]: 50%; pest or weed control at 250 g/ha [12]: 0%; pest or weed control at 250 g/ha (rice (Oryra sativa)): 15%; pest or weed control at 250 g/ha [13]: 0%; pest or weed control at 250 g/ha [14]: 95% |
